Converted amounts (≈) assume the structure as drawn.

For test [1], the system named is normal human epidermal keratinocytes (NHEK) [正常ヒト皮膚表皮角化細胞(NHEK)]. The experiment in a line: Epidermal keratinocyte proliferation test (試験例4), MTT assay. In kind it is cell-based. Conditions: 72 h, sample solution 3.125 μg/mL, 3 days, St/Ct×100 (no sample = 100%), read-out: epidermal keratinocyte proliferation promotion rate. On the technique in general: Formazan colour is commonly taken as a measure of viable cells.

For test [2], the system named is human breast cancer-derived cells (MCF-7) [ヒト乳癌由来細胞(MCF−7)]. The experiment in a line: Estrogen-like action test (試験例2), MTT assay. Conditions: MCF7, sample solution 3.125 μg/mL, A/B×100 (no sample = 100%), read-out: estrogen-like action rate. In kind it is cell-based.
Test [3] deals with cyclic AMP phosphodiesterase [サイクリックAMPホスホジエステラーゼ]. The experiment in a line: Cyclic AMP phosphodiesterase activity inhibition test (試験例5), HPLC. Format: biochemical. Conditions: sample concentration at 50% inhibition of cyclic AMP phosphodiesterase activity, by interpolation; pH 7.5, 37℃, 30 min.
For test [4], the system named is human normal skin fibroblasts (NB1RGB) [ヒト正常皮膚線維芽細胞(NB1RGB)]. The experiment in a line: Fibroblast proliferation test (試験例3), MTT assay. Format: cell-based. Conditions: 72 h, sample solution 12.5 μg/mL, 100 μL added per well, 3 days, (St−Sb)/(Ct−Cb)×100 (no sample = 100%), read-out: fibroblast proliferation promotion rate.

In the case of `CC1OC2OC3C(OCC(O)C3O)OC(=O)C34CCC(C)(C)CC3C3=CCC5C6(C)CC(O)C(OC7OC(CO)C(O)C(O)C7OC7OCC(OC(=O)CC(C)(O)CC(=O)OC1C(OC1OCC(O)C(O)C1O)C2O)C(O)C7O)C(C)(CO)C6CCC5(C)C3(C)CC4` (stereo not shown) [ツベイモシドI, ツベイモシドI(tubeimoside I)], the values for the activity at 3.125 µg/mL in test [1] and in test [2] were 139.4 ± 1.3% and 132 ± 3%, respectively. For the same compound, in test [3], the half-maximal inhibitory concentration (IC50) (usually the midpoint of a concentration-inhibition curve) was found to be 178.9 µg/mL (≈ 136 µM). In addition, the activity at 12.5 µg/mL in test [4] is 127 ± 2.3%.

For the origin of these results see patent JP2006056855A, “免疫賦活剤、抗腫瘍剤、抗老化剤、抗肥満剤及び皮膚化粧料” (Maruzen Pharmaceutical Co Ltd, priority 2004, dated 2006).
